In patent publication US20180214428A1, “3-(1H-INDOL-2-YL)-1H-PYRAZOLO[3,4-B]PYRIDINES AND THERAPEUTIC USES THEREOF” (Samumed, LLC, priority 2015, published 2018):

Tests used:
[1] = system: primary human mesenchymal stem cells (hMSCs); experiment: Induction of chondrogenesis in primary human mesenchymal stem cells; format: cell-based; settings: 6 days; for Emax / EC50: Homo sapiens, Mesenchymal stem cells, 144 h; for Emax: read-out: Max. Activity as % TGF-β3 activity; for EC50: concentration required to induce 50% levels of chondrogenesis vs TGF-β3, read-out: Conc (nM) of 50% TGF-β3 activity
Procedure: Representative compounds were screened using primary human mesenchymal stem cells (hMSCs) to determine their ability to induce chondrogenesis (process by which cartilage is developed).
Primary human mesenchymal stem cells (hMSCs) were purchased from Lonza (Walkersville, Md.) and expanded in Mesenchymal Stem Cell Growth Media (Lonza). Cells between passage 3 and 6 were used for the experiments.
Each compound was dissolved in DMSO as a 10 mM stock and used to prepare compound source plates. Serial dilution (1:3, 6-point dose-response curves from 2700 nM to 10 nM) and compound transfer was performed using the ECHO 550 (Labcyte, Sunnyvale, Calif.) into 96-well clear bottom assay plates (Greiner Bio-One) with appropriate DMSO backfill for a final DMSO concentration of 0.03%. hMSCs were plated at 20,000 cells/well in 250 μL/well Incomplete Chondrogenic Induction Medium (Lonza; DMEM, dexamethasone, ascorbate, insulin-transferrin-selenium [ITS supplement], gentamycin-amphotericin [GA-1000], sodium pyruvate, proline and L-glutamine). TGF-β3 (10 ng/mL) was used as a positive control for differentiation while negative control wells were treated with 75 nL DMSO for normalization and calculating EC50 values. Cells were incubated at 37° C. and 5% CO2 for 6 days. To image chondrogenic nodules, the cells were fixed using 4% formaldehyde (Electron Microscopy Sciences), and stained with 2 μg/mL Rhodamine B (Sigma-Aldrich) and 20 μM Nile Red (Sigma-Aldrich) [Johnson K., et. al, A Stem Cell-Based Approach to Cartilage Repair, Science, (2012). 336(6082), 717-721]. The nodules imaged (4 images per well at 4× magnification) by excitation at 531 nm and emission at 625 nm and quantified using the CellInsight CX5 (Thermo Scientific). Number of nodules in each well was normalized to the average of 3 DMSO treated wells on the same plate using Excel (Microsoft Inc.). The normalized averages (fold change over DMSO) of 3 replicate wells for each compound concentration were calculated. Due to solubility limitations of some of the compounds, curve fitting was incomplete leading to inaccurate EC50 determinations.
Using TGF-β3 as a positive control, the concentration of representative compounds required to induce 50% levels of chondrogenesis is reported. In addition, the maximum activity of each compound and the respective dose that each compound reached maximum chondrogenesis activity is reported.

IL-6 = IL-6 inhibition in LPS-stimulated THP-1 monocytes (HTRF); format: cell-based, human; settings: THP-1 cells; for EC50: 500 ng/mL LPS, 22 h, HTRF IL-6 readout, 10-point dose-response from 10 μM; for inhibition at 10 µM: LPS stimulated, given only where EC50 >10 μM, top concentration 10 μM, read-out: percentage in parentheses beside EC50 >10 (IL-6 inhibition)
Method in brief: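 THP-1 cells serum-reduced (1% FBS, 24 h), then 5000 cells/well preincubated 2 h with compound (10-point 1:3 series from 10 μM, 0.1% DMSO) before 500 ng/mL LPS for 22 h at 37 °C. Secreted IL-6 quantified by HTRF 665/620 ratio; DMSO-normalised duplicates fitted to four-parameter EC50; above 10 μM, % inhibition at 10 μM given.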

[2] = chondrogenic nodules, TGF-β3 (10 ng/mL) positive control

Row | EC50 [1] [nM] | EC50 (IL-6; Homo sapiens) [nM] | EC50 (IL-6) [nM] | SMILES | Emax [1, 2] [%] | inhibition at 10 µM (IL-6; Homo sapiens) [%] | Max. Activity as % TGF-β3 activity [1, 2] [%] | Conc (nM) of Max. activity ([1]; chondrogenic nodules, dose at which maximum chondrogenesis activity was reached) [nM]
1 | 300 | 9 |  | O=C(Nc1cncc(-c2cnc3[nH]nc(-c4cc5c(-c6ccccn6)cccc5[nH]4)c3c2)c1)c1ccccc1 [Compound 128, N-(5-(3-(4-(Pyridin-2-yl)-1H-indol-2-yl)-1H-pyrazolo[3,4-b]pyridin-5-yl)pyridin-3-yl)benzamide] | 565 |  |  | 
2 |  | 1120 |  | c1ccc(-c2cccc3[nH]c(-c4n[nH]c5ncc(-c6cncc(CN7CCCC7)c6)cc45)cc23)nc1 [Compound 131, 3-(4-(Pyridin-2-yl)-1H-indol-2-yl)-5-(5-(pyrrolidin-1-ylmethyl)pyridin-3-yl)-1H-pyrazolo[3,4-b]pyridine] | 161 |  |  | 
3 | 900 | 421 |  | CC(C)(C)CC(=O)Nc1cncc(-c2cnc3[nH]nc(-c4cc5c(-c6ccccn6)cccc5[nH]4)c3c2)c1 [Compound 133, 3,3-Dimethyl-N-(5-(3-(4-(pyridin-2-yl)-1H-indol-2-yl)-1H-pyrazolo[3,4-b]pyridin-5-yl)pyridin-3-yl)butanamide] | 345 |  |  | 
4 |  | 1890 |  | CCCCC(=O)Nc1cncc(-c2cnc3[nH]nc(-c4cc5c(-c6ccccn6)cccc5[nH]4)c3c2)c1 [Compound 136, N-(5-(3-(4-(Pyridin-2-yl)-1H-indol-2-yl)-1H-pyrazolo[3,4-b]pyridin-5-yl)pyridin-3-yl)pentanamide] | 41 |  |  | 
5 |  | > 10000 |  | c1ccc(-c2cccc3[nH]c(-c4n[nH]c5ncc(-c6cncnc6)cc45)cc23)nc1 [Compound 143, 3-(4-(Pyridin-2-yl)-1H-indol-2-yl)-5-(pyrimidin-5-yl)-1H-pyrazolo[3,4-b]pyridine] | 25 | 37.6 |  | 
6 | 30 | 1460 |  | CCNCc1cncc(-c2cnc3[nH]nc(-c4cc5c(N6CCCCC6)cccc5[nH]4)c3c2)c1 [Compound 150, N-((5-(3-(4-(Piperidin-1-yl)-1H-indol-2-yl)-1H-pyrazolo[3,4-b]pyridin-5-yl)pyridin-3-yl)methyl)ethanamine] | 91 |  |  | 
7 |  | 5250 |  | CN(C)c1cncc(-c2cnc3[nH]nc(-c4cc5c(N6CCCCC6)cccc5[nH]4)c3c2)c1 [Compound 151, N,N-Dimethyl-5-(3-(4-(piperidin-1-yl)-1H-indol-2-yl)-1H-pyrazolo[3,4-b]pyridin-5-yl)pyridin-3-amine] | 22 |  |  | 
8 | 300 | 220 |  | CN1CCN(c2cccc3[nH]c(-c4n[nH]c5ncc(-c6cncc(CN7CCCCC7)c6)cc45)cc23)CC1 [Compound 215, 3-(4-(4-Methylpiperazin-1-yl)-1H-indol-2-yl)-5-(5-(piperidin-1-ylmethyl)pyridin-3-yl)-1H-pyrazolo[3,4-b]pyridine] | 51 |  |  | 
9 | 100 | 98 |  | CN1CCN(c2cccc3[nH]c(-c4n[nH]c5ncc(-c6cncc(NC(=O)C7CCCC7)c6)cc45)cc23)CC1 [Compound 222, N-(5-(3-(4-(4-Methylpiperazin-1-yl)-1H-indol-2-yl)-1H-pyrazolo[3,4-b]pyridin-5-yl)pyridin-3-yl)cyclopentanecarboxamide] | 408 |  |  | 
10 | 10 | 821 |  | c1ccc2[nH]c(-c3n[nH]c4ncc(-c5cncc(CN6CCCC6)c5)cc34)cc2c1 [Compound 240, 3-(1H-Indol-2-yl)-5-(5-(pyrrolidin-1-ylmethyl)pyridin-3-yl)-1H-pyrazolo[3,4-b]pyridine] | 98 |  |  | 
11 |  | 2080 |  | CCCC(=O)Nc1cncc(-c2cnc3[nH]nc(-c4cc5ccccc5[nH]4)c3c2)c1 [Compound 243, N-(5-(3-(1H-Indol-2-yl)-1H-pyrazolo[3,4-b]pyridin-5-yl)pyridin-3-yl) butyramide] | 28 |  |  | 
12 | 30 | 7150 |  | FC1(F)CCN(Cc2cncc(-c3cnc4[nH]nc(-c5cc6c(-c7ccoc7)cccc6[nH]5)c4c3)c2)C1 [Compound 308, 5-(5-((3,3-Difluoropyrrolidin-1-yl)methyl)pyridin-3-yl)-3-(4-(furan-3-yl)-1H-indol-2-yl)-1H-pyrazolo[3,4-b]pyridine] | 72 |  |  | 
13 |  | 660 |  | CC(C)CC(=O)Nc1cncc(-c2cnc3[nH]nc(-c4cc5c(-c6cc(F)cc(NCCN(C)C)c6)cccc5[nH]4)c3c2)c1 [Compound 424, N-(5-(3-(4-(3-((2-(Dimethylamino)ethyl)amino)-5-fluorophenyl)-1H-indol-2-yl)-1H-pyrazolo[3,4-b]pyridin-5-yl)pyridin-3-yl)-3-methylbutanamide] | 63 |  |  | 
14 | 900 | 92 |  | CN(C)CCNc1cc(F)cc(-c2cccc3[nH]c(-c4n[nH]c5ncc(-c6cncc(N)c6)cc45)cc23)c1 [Compound 425, N^1-(3-(2-(5-(5-Aminopyridin-3-yl)-1H-pyrazolo[3,4-b]pyridin-3-yl)-1H-indol-4-yl)-5-fluorophenyl)-N^2,N^2-dimethylethane-1,2-diamine] | 101 |  |  | 
15 |  | 257 |  | CCNCc1cncc(-c2cnc3[nH]nc(-c4cc5c(-c6cc(F)cc(NCCN(C)C)c6)cccc5[nH]4)c3c2)c1 [Compound 428, N^1-(3-(2-(5-(5-((Ethylamino)methyl)pyridin-3-yl)-1H-pyrazolo[3,4-b]pyridin-3-yl)-1H-indol-4-yl)-5-fluorophenyl)-N^2,N^2-dimethylethane-1,2-diamine] | 74 |  |  | 
16 |  | 692 |  | CC(C)Nc1cncc(-c2cnc3[nH]nc(-c4cc5c(-c6cc(F)cc(NCCN(C)C)c6)cccc5[nH]4)c3c2)c1 [Compound 434, N^1-(3-Fluoro-5-(2-(5-(5-(isopropylamino)pyridin-3-yl)-1H-pyrazolo[3,4-b]pyridin-3-yl)-1H-indol-4-yl)phenyl)-N^2,N^2-dimethylethane-1,2-diamine] | 56 |  |  | 
17 | 900 | > 10000 |  | CN(C)CCNc1cc(F)cc(-c2cccc3[nH]c(-c4n[nH]c5ncc(-c6cncc(CN7CCCCC7)c6)cc45)cc23)c1 [Compound 437, N^1-(3-Fluoro-5-(2-(5-(5-(piperidin-1-ylmethyl)pyridin-3-yl)-1H-pyrazolo[3,4-b]pyridin-3-yl)-1H-indol-4-yl)phenyl)-N^2,N^2-dimethylethane-1,2-diamine] | 175 | 43.2 |  | 
18 |  |  | 15 | CN(C)CCNc1cc(F)cc(-c2cccc3[nH]c(-c4n[nH]c5ncc(-c6ccncc6)cc45)cc23)c1 [Compound 440] |  |  | 31 | 2700
19 | 100 | > 10000 |  | CN(C)CCNc1cc(F)cc(-c2cccc3[nH]c(-c4n[nH]c5ncc(-c6cncc(NC(=O)C7CCC7)c6)cc45)cc23)c1 [Compound 443, N-(5-(3-(4-(3-((2-(Dimethylamino)ethyl)amino)-5-fluorophenyl)-1H-indol-2-yl)-1H-pyrazolo[3,4-b]pyridin-5-yl)pyridin-3-yl)cyclobutanecarboxamide] | 78 | 47.3 |  | 
20 |  | 7 |  | CN(C)CCNc1cc(F)cc(-c2cccc3[nH]c(-c4n[nH]c5ncc(-c6cncnc6)cc45)cc23)c1 [Compound 449, N^1-(3-Fluoro-5-(2-(5-(pyrimidin-5-yl)-1H-pyrazolo[3,4-b]pyridin-3-yl)-1H-indol-4-yl)phenyl)-N^2,N^2-dimethylethane-1,2-diamine] | 17 |  |  | 
